Measured values reported in ChEMBL document CHEMBL1139972, “Dihydro-[1H]-quinolin-2-ones as retinoid X receptor (RXR) agonists for potential treatment of dyslipidemia” (Bioorg Med Chem Lett, 2007).
Calls of active or inactive are those of the source. The rule behind the calls is not given here.

Tests used:
[1] = Activity at RXR-LXR heterodimer assessed as induction of ABCA1 mRNA; set-up: species or system Homo sapiens
[2] = biological target: T1, Retinoic acid receptor RXR-alpha (Homo sapiens, UniProt P19793); test: Activity at RXRalpha by GAL4DNA cotransfection assay
T1 sequence (P19793 whole entry): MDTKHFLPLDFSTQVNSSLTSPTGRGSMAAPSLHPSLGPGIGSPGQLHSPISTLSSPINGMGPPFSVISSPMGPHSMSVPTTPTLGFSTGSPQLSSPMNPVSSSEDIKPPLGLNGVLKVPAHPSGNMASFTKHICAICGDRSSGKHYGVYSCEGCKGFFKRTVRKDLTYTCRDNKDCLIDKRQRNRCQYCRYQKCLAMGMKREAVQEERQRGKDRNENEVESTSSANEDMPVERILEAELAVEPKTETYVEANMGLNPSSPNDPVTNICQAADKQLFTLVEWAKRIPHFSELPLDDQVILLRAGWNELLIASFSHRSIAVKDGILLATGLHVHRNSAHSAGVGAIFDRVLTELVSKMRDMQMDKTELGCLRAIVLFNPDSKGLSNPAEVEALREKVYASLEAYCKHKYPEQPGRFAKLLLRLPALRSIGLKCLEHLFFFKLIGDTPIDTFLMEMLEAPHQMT

[3] = biological target: T2, Retinoic acid receptor RXR-alpha (Homo sapiens) (UniProt P19793); test: Activity at RXRalpha by GAL4DNA cotransfection assay relative to 5-((3-(1-ethyl-4,4,6-trimethyl-2-oxo-1,2,3,4-tetrahydroquinolin-7-yl)-4-(trifluoromethoxy)phenyl)methylene)thiazolidine-2,4-dione; set-up: concentration or dose not given beside the values
T2 sequence (whole entry): T1 sequence (P19793 whole entry)

Homo sapiens = species: Homo sapiens; test: Activation of RXR-LXR heterodimer assessed as induction of ABCA1 mRNA relative to 5-((3-(1-ethyl-4,4,6-trimethyl-2-oxo-1,2,3,4-tetrahydroquinolin-7-yl)-4-(trifluoromethoxy)phenyl)methylene)thiazolidine-2,4-dione; set-up: concentration or dose not given beside the values
[4] = AUC in rat at 3 mg/kg, po; assay type: ADME, organism-based; set-up: dose 3 mg/kg, route oral; conditions: plasma
Rattus norvegicus [5] = test: Effect on serum triglyceride level in high cholesterol diet fed Sprague-Dawley rat at 3 mg/kg, po after 8 days relative to control; assay type: functional
[6] = Cmax in high cholesterol diet fed Sprague-Dawley rat at 30 mg/kg, po after 8 days; assay type: ADME, organism-based; set-up: dose 30 mg/kg, route oral; conditions: in vivo
Rattus norvegicus [7] = test: Effect on serum cholesterol level in high cholesterol diet fed Sprague-Dawley rat at 3 mg/kg, po after 8 days relative to control; assay type: functional
Rattus norvegicus [8] = test: Effect on serum cholesterol level in high cholesterol diet fed Sprague-Dawley rat at 0.3 mg/kg, po after 8 days relative to control; assay type: functional
[9] = Oral bioavailability in rat at 3 mg/kg; assay type: ADME, organism-based; conditions: in vivo
Rattus norvegicus [10] = test: Effect on serum cholesterol level in high cholesterol diet fed Sprague-Dawley rat at 1 mg/kg, po after 8 days relative to control; assay type: functional
Rattus norvegicus [11] = test: Effect on serum cholesterol level in high cholesterol diet fed Sprague-Dawley rat at 10 mg/kg, po after 8 days relative to control; assay type: functional
Rattus norvegicus [12] = test: Effect on serum LDL-C level in high cholesterol diet fed Sprague-Dawley rat at 1 mg/kg, po after 8 days relative to control; assay type: functional
[13] = Cmax in rat at 3 mg/kg, po; assay type: ADME, organism-based; set-up: dose 3 mg/kg, route oral; conditions: in vivo
Rattus norvegicus [14] = test: Effect on serum triglyceride level in high cholesterol diet fed Sprague-Dawley rat at 30 mg/kg, po after 8 days relative to control; assay type: functional
Rattus norvegicus [15] = test: Effect on serum triglyceride level in high cholesterol diet fed Sprague-Dawley rat at 10 mg/kg, po after 8 days relative to control; assay type: functional
Rattus norvegicus [16] = test: Effect on serum cholesterol level in high cholesterol diet fed Sprague-Dawley rat at 30 mg/kg, po after 8 days relative to control; assay type: functional
Rattus norvegicus [17] = test: Effect on serum HDL-C level in high cholesterol diet fed Sprague-Dawley rat at 0.3 mg/kg, po after 8 days relative to control; assay type: functional
Rattus norvegicus [18] = test: Effect on serum HDL-C level in high cholesterol diet fed Sprague-Dawley rat at 1 mg/kg, po after 8 days relative to control; assay type: functional
Rattus norvegicus [19] = test: Effect on serum triglyceride level in high cholesterol diet fed Sprague-Dawley rat at 1 mg/kg, po after 8 days relative to control; assay type: functional
Rattus norvegicus [20] = test: Effect on serum LDL-C level in high cholesterol diet fed Sprague-Dawley rat at 3 mg/kg, po after 8 days relative to control; assay type: functional
Mus musculus = species: Mus musculus; test: Decrease in blood glucose level in db/db mouse after 11 days; assay type: functional, organism-based
Rattus norvegicus [21] = test: Effect on serum LDL-C level in high cholesterol diet fed Sprague-Dawley rat at 10 mg/kg, po after 8 days relative to control; assay type: functional
Rattus norvegicus [22] = test: Effect on serum LDL-C level in high cholesterol diet fed Sprague-Dawley rat at 0.3 mg/kg, po after 8 days relative to control; assay type: functional
Rattus norvegicus [23] = test: Effect on serum HDL-C level in high cholesterol diet fed Sprague-Dawley rat at 3 mg/kg, po after 8 days relative to control; assay type: functional
Rattus norvegicus [24] = test: Effect on serum triglyceride level in high cholesterol diet fed Sprague-Dawley rat at 0.3 mg/kg, po after 8 days relative to control; assay type: functional
[25] = Half life in rat at 3 mg/kg, po; assay type: ADME, organism-based; set-up: dose 3 mg/kg, route oral; conditions: in vivo
[26] = Activity at RXR-PPARgamma in human preadipocytes assessed as induction of adipocytes fatty acid binding protein; assay type: cell-based
[27] = Cmax in high cholesterol diet fed Sprague-Dawley rat at 0.3 mg/kg, po after 8 days; assay type: ADME, organism-based; set-up: dose 0.3 mg/kg, route oral; conditions: in vivo
Rattus norvegicus [28] = test: Effect on serum HDL-C level in high cholesterol diet fed Sprague-Dawley rat at 30 mg/kg, po after 8 days relative to control; assay type: functional
[29] = Clearance in rat at 3 mg/kg, po; assay type: ADME, organism-based; set-up: dose 3 mg/kg, route oral; conditions: in vivo
Rattus norvegicus [30] = test: Effect on serum LDL-C level in high cholesterol diet fed Sprague-Dawley rat at 30 mg/kg, po after 8 days relative to control; assay type: functional
Rattus norvegicus [31] = test: Effect on serum HDL-C level in high cholesterol diet fed Sprague-Dawley rat at 10 mg/kg, po after 8 days relative to control; assay type: functional

COc1ccc(CCC(=O)O)cc1-c1cc2c(cc1C)C(C)(C)CC(=O)N2C(C)C
EC50 [1]: > 3000 nM
EC50 [2]: 361 nM
Activity [3]: 60%

CCN1C(=O)CC(C)(C)c2cc(C)c(-c3cc(C#CC(=O)O)ccc3OC(F)(F)F)cc21
EC50 [1]: > 3000 nM

CCN1C(=O)CC(C)(C)c2cc(C)c(-c3cc(/C(C)=C/C(=O)O)ccc3OC(F)(F)F)cc21
EC50 [2]: > 10000 nM

CCN1C(=O)CC(C)(C)c2cc(C)c(-c3cc(OCC(=O)O)ccc3OC(F)(F)F)cc21
EC50 [1]: > 3000 nM

CCN1C(=O)CC(C)(C)c2cc(C)c(-c3cc(C(C)CC(=O)O)ccc3OC(F)(F)F)cc21 (stereo not drawn)
EC50 [1]: 347 nM
Activity (Homo sapiens): 160%
EC50 [2]: 37.7 nM
Activity [3]: 99%

CCN1C(=O)CC(C)(C)c2cc(C)c(-c3cc(CCC(=O)O)ccc3OC(F)(F)F)cc21
EC50 [1]: 47 nM
Activity (Homo sapiens): 70%
AUC [4]: 6130 ng·h/mL
Activity (Rattus norvegicus [5]): 253 mg/dL
Cmax [6]: 7510 ng/mL
Activity (Rattus norvegicus [7]): 302 mg/dL
Activity (Rattus norvegicus [8]): 343 mg/dL
bioavailability [9]: 71%
Activity (Rattus norvegicus [10]): 313 mg/dL
Activity (Rattus norvegicus [11]): 228 mg/dL
Activity (Rattus norvegicus [12]): 46 mg/dL
Cmax [13]: 678 ng/mL
Activity (Rattus norvegicus [14]): 322 mg/dL
Activity (Rattus norvegicus [15]): 270 mg/dL
Activity (Rattus norvegicus [16]): 252 mg/dL
EC50 [2]: 7.2 nM
Activity (Rattus norvegicus [17]): 29 mg/dL
Activity (Rattus norvegicus [18]): 30 mg/dL
Activity (Rattus norvegicus [19]): 279 mg/dL
Activity (Rattus norvegicus [20]): 46 mg/dL
Activity (Mus musculus): inactive
Activity (Rattus norvegicus [21]): 35 mg/dL
Activity (Rattus norvegicus [22]): 53 mg/dL
Activity (Rattus norvegicus [23]): 37 mg/dL
Activity (Rattus norvegicus [24]): 320 mg/dL
half-life [25]: 24 h
Activity [3]: 79%
EC50 [26]: 1200 nM
Cmax [27]: 58.5 ng/mL
Activity (Rattus norvegicus [28]): 42 mg/dL
CL/F [29]: 4.6 mL/min/kg
Activity (Rattus norvegicus [30]): 38 mg/dL
Activity (Rattus norvegicus [31]): 39 mg/dL

CCN1C(=O)CC(C)(C)c2cc(C)c(-c3cc([C@H]4C[C@@H]4C(=O)O)ccc3OC(F)(F)F)cc21
EC50 [1]: > 3000 nM
EC50 [2]: 361 nM
Activity [3]: 92%

CCN1C(=O)CC(C)(C)c2cc(C)c(-c3cc(C4CC4C(=O)O)ccc3OCC(F)(F)F)cc21 (racemic)
EC50 [1]: > 3000 nM
EC50 [2]: 116 nM
Activity [3]: 87%

Cc1cc2c(cc1-c1cc(CCC(=O)O)ccc1OC(F)(F)F)N(C)C(=O)CC2(C)C
EC50 [1]: 53 nM
EC50 [2]: 45.9 nM
Activity [3]: 91%

CCN1C(=O)CC(C)(C)c2cc(C)c(-c3cc(CCCC(=O)O)ccc3OC(F)(F)F)cc21
EC50 [1]: > 3000 nM
EC50 [2]: 527 nM
Activity [3]: 70%

Cc1cc2c(cc1-c1cc(CCC(=O)O)ccc1OCC(F)(F)F)N(C(C)C)C(=O)CC2(C)C
EC50 [1]: 369 nM
Activity (Homo sapiens): 45%
EC50 [2]: 36.5 nM
Activity [3]: 79%

CCN1C(=O)CC(C)(C)c2cc(C)c(-c3cc(/C=C(\C)C(=O)O)ccc3OC(F)(F)F)cc21
EC50 [1]: 100 nM
Activity (Homo sapiens): 49%
EC50 [2]: 27.9 nM
Activity [3]: 81%

COc1ccc(C2CC2C(=O)O)cc1-c1cc2c(cc1C)C(C)(C)CC(=O)N2C(C)C (racemic)
EC50 [1]: 1520 nM
EC50 [2]: 208 nM
Activity [3]: 50%

Cc1cc2c(cc1-c1cc([C@H]3C[C@@H]3C(=O)O)ccc1OC(F)(F)F)N(C(C)C)C(=O)CC2(C)C
EC50 [1]: > 3000 nM
EC50 [2]: 198 nM
Activity [3]: 50%

CCN1C(=O)CC(C)(C)c2cc(C)c(-c3cc(OC(C)(C)C(=O)O)ccc3OC(F)(F)F)cc21
EC50 [1]: > 3000 nM

CCN1C(=O)CC(C)(C)c2cc(C)c(-c3cc(/C=C\C(=O)O)ccc3OC(F)(F)F)cc21
EC50 [1]: 886 nM
Activity (Homo sapiens): 75%
EC50 [2]: 39.1 nM
Activity [3]: 97%

CCN1C(=O)CC(C)(C)c2cc(C)c(-c3cc(/C=C4\SC(=O)NC4=O)ccc3OC(F)(F)F)cc21
EC50 [1]: 180 nM
Activity (Rattus norvegicus [11]): 267 mg/dL
Activity (Rattus norvegicus [15]): 286 mg/dL
Activity (Rattus norvegicus [21]): 41 mg/dL
EC50 [26]: 139 nM
Activity (Rattus norvegicus [31]): 47 mg/dL

Cc1cc2c(cc1-c1cc(CCC(=O)O)ccc1OC(F)(F)F)N(C(C)C)C(=O)CC2(C)C
EC50 [1]: 1 nM
Activity (Homo sapiens): 59%
Activity [3]: 80%

CCN1C(=O)CC(C)(C)c2cc(C)c(-c3cc([C@@H]4C[C@H]4C(=O)O)ccc3OC(F)(F)F)cc21
EC50 [1]: > 3000 nM
EC50 [2]: 2.3 nM
Activity [3]: 85%
EC50 [26]: 581 nM

CCN1C(=O)CC(C)(C)c2cc(C)c(-c3cc(CC(C)C(=O)O)ccc3OC(F)(F)F)cc21 (stereo not drawn)
EC50 [1]: > 3000 nM
EC50 [2]: 760 nM
Activity [3]: 85%

CCN1C(=O)CC(C)(C)c2cc(C)c(-c3cc(CCC(=O)O)ccc3OCC(F)(F)F)cc21
EC50 [1]: > 3000 nM
EC50 [2]: 70.2 nM
Activity [3]: 90%
EC50 [26]: > 3000 nM

Cc1cc2c(cc1-c1cc(C3CC3C(=O)O)ccc1OCC(F)(F)F)N(C)C(=O)CC2(C)C (racemic)
EC50 [1]: > 3000 nM
EC50 [2]: 144 nM
Activity [3]: 108%

CCN1C(=O)CC(C)(C)c2cc(C)c(-c3cc(/C=C/C(=O)O)ccc3OC(F)(F)F)cc21
EC50 [1]: 3.6 nM
Activity (Homo sapiens): 81%
Activity [3]: 115%

Cc1cc2c(cc1-c1cc(CCC(=O)O)ccc1OC(F)(F)F)N(CC(F)(F)F)C(=O)CC2(C)C
EC50 [1]: > 3000 nM
EC50 [2]: 1.4 nM
Activity [3]: 100%

CCN1C(=O)CC(C)(C)c2cc(C)c(-c3cc(C4CC4C(=O)O)ccc3OC(F)(F)F)cc21 (racemic)
EC50 [1]: 17.4 nM
EC50 [2]: 19.2 nM
Activity [3]: 88%

Cc1cc2c(cc1-c1cc(C3CC3C(=O)O)ccc1OC(F)(F)F)N(C(C)C)C(=O)CC2(C)C (racemic)
EC50 [1]: > 3000 nM
EC50 [2]: 5 nM
Activity [3]: 85%

Cc1cc2c(cc1-c1cc([C@@H]3C[C@H]3C(=O)O)ccc1OC(F)(F)F)N(C(C)C)C(=O)CC2(C)C
EC50 [1]: > 3000 nM
EC50 [2]: 10 nM
Activity [3]: 70%
EC50 [26]: 266 nM
